Source: PubChem BioAssay AID330 (DTP/NCI, 2004)
Values joined by “and” are separate entries in the source; they are usually repeats but may differ in a detail not shown here. Equal entries are not always repeated. Toxic doses and inconclusive results are not listed.

Tested on: P388 leukemia ip, CD2F1 mice, survival T/C
Assay: NCI In Vivo Anticancer Drug Screen. Data for tumor model P388 Leukemia (intraperitoneal) in CD2F1 (CDF1) mice
Conditions: endpoint: median survival time, higher = longer survival
How it was run: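 Mice carrying the transplanted tumor received test compound or vehicle. Survival was recorded in each group, and the value is the treated-group measurement divided by that of the vehicle-treated control group.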

For `COc1cccc2c1C(=O)c1c(O)c3c(c(O)c1C2=O)C[C@@](O)(C(C)=O)C[C@@H]3OC1CC(N)C(O)C(C)O1` (stereo partly drawn), the T/C (dose: 0.06 mg/kg/injection, schedule: Q01DX009 (ip), vehicle: water) was 104 % of control and 118 % of control, the T/C (dose: 0.06 mg/kg/injection, schedule: Q03HX008 (ip), vehicle: saline) was 118 % of control and the T/C (dose: 0.08 mg/kg/injection, schedule: Q01DX005 (ip), vehicle: saline) was 118 % of control. For the same molecule, the T/C (dose: 0.12 mg/kg/injection, schedule: Q01DX005 (ip), vehicle: water) was 114 % of control, the T/C (dose: 0.13 mg/kg/injection, schedule: Q03HX008 (ip), vehicle: saline) was 120 % of control and the T/C (dose: 0.16 mg/kg/injection, schedule: Q01DX005 (ip), vehicle: saline) was 150 % of control and 167 % of control. The T/C (dose: 0.16 mg/kg/injection, schedule: Q01DX009 (ip), vehicle: saline) was 168 % of control, the T/C (dose: 0.21 mg/kg/injection, schedule: Q01DX009 (ip), vehicle: water) was 150 % of control and the T/C (dose: 0.25 mg/kg/injection, schedule: Q01DX005 (ip), vehicle: water) was 112 % of control. The T/C (dose: 0.25 mg/kg/injection, schedule: Q04DX003 (ip), vehicle: saline) was 100 % of control, the T/C (dose: 0.32 mg/kg/injection, schedule: Q01DX001 (ip), vehicle: saline) was 150 % of control and the T/C (dose: 0.32 mg/kg/injection, schedule: Q01DX005 (ip), vehicle: saline) was 175 % of control. The T/C (dose: 0.32 mg/kg/injection, schedule: Q01DX009 (ip), vehicle: saline) was 166 % of control, the T/C (dose: 0.32 mg/kg/injection, schedule: Q03HX040 (ip), vehicle: saline) was 116 % of control and the T/C (dose: 0.39 mg/kg/injection, schedule: Q01DX009 (ip), vehicle: saline) was 172 % of control. The T/C (dose: 0.42 mg/kg/injection, schedule: Q01DX009 (ip), vehicle: water) was 150 % of control and 155 % of control, the T/C (dose: 0.5 mg/kg/injection, schedule: Q01DX001 (ip), vehicle: saline) was 108 % of control and the T/C (dose: 0.5 mg/kg/injection, schedule: Q01DX005 (ip), vehicle: water) was 107 % of control. For the same molecule, the T/C (dose: 0.5 mg/kg/injection, schedule: Q01DX005 (oral), vehicle: water) was 105 % of control, the T/C (dose: 0.5 mg/kg/injection, schedule: Q01DX010 (ip), vehicle: saline) was 163 % of control and the T/C (dose: 0.5 mg/kg/injection, schedule: Q04DX003 (ip), vehicle: saline) was 109 % of control. For the same molecule, the T/C (dose: 0.63 mg/kg/injection, schedule: Q01DX001 (ip), vehicle: saline) was 166 % of control, the T/C (dose: 0.63 mg/kg/injection, schedule: Q01DX009 (ip), vehicle: saline) was 171 % of control and the T/C (dose: 0.63 mg/kg/injection, schedule: Q03HX040 (ip), vehicle: saline) was 112 % of control. The T/C (dose: 0.64 mg/kg/injection, schedule: Q01DX001 (ip), vehicle: saline) was 160 % of control, the T/C (dose: 0.75 mg/kg/injection, schedule: Q04DX003 (ip), vehicle: saline) was 110 % of control and 119 % of control and the T/C (dose: 0.83 mg/kg/injection, schedule: Q01DX009 (ip), vehicle: water) was 164 % of control and 169 % of control. The T/C (dose: 1.0 mg/kg/injection, schedule: Q01DX001 (ip), vehicle: saline) was 115 % of control, the T/C (dose: 1.0 mg/kg/injection, schedule: Q01DX005 (oral), vehicle: water) was 102 % of control and the T/C (dose: 1.0 mg/kg/injection, schedule: Q01DX010 (ip), vehicle: saline) was 172 % of control. The T/C (dose: 1.0 mg/kg/injection, schedule: Q04DX002 (ip), vehicle: water) was 158 % of control, the T/C (dose: 1.0 mg/kg/injection, schedule: Q04DX003 (iv), vehicle: saline) was 98 % of control and the T/C (dose: 1.08 mg/kg/injection, schedule: Q01DX009 (ip), vehicle: saline) was 172 % of control. For the same molecule, the T/C (dose: 1.08 mg/kg/injection, schedule: Q04DX003 (ip), vehicle: saline) was 150 % of control and 152 % of control, the T/C (dose: 1.08 mg/kg/injection, schedule: Q04DX003 (ip), vehicle: water) was 157 % of control and the T/C (dose: 1.25 mg/kg/injection, schedule: Q01DX001 (ip), vehicle: saline) was 154 % of control. The T/C (dose: 1.25 mg/kg/injection, schedule: Q01DX005 (ip), vehicle: saline) was 162 % of control, the T/C (dose: 1.25 mg/kg/injection, schedule: Q03HX008 (ip), vehicle: saline) was 167 % of control and the T/C (dose: 1.3 mg/kg/injection, schedule: Q01DX001 (ip), vehicle: water) was 154 % of control. For the same molecule, the T/C (dose: 1.5 mg/kg/injection, schedule: Q04DX003 (ip), vehicle: saline) was 116 % of control and 117 % of control, the T/C (dose: 1.67 mg/kg/injection, schedule: Q01DX009 (ip), vehicle: water) was 123 % of control and the T/C (dose: 1.8 mg/kg/injection, schedule: Q01DX001 (ip), vehicle: water) was 162 % of control. For the same molecule, the T/C (dose: 1.8 mg/kg/injection, schedule: Q01DX009 (ip), vehicle: saline) was 163 % of control, the T/C (dose: 1.8 mg/kg/injection, schedule: Q04DX003 (ip), vehicle: saline) was 154 % of control and the T/C (dose: 1.8 mg/kg/injection, schedule: Q04DX003 (ip), vehicle: water) was 160 % of control. For the same molecule, the T/C (dose: 2.0 mg/kg/injection, schedule: Q01DX001 (ip), vehicle: saline) was 114 % of control, the T/C (dose: 2.0 mg/kg/injection, schedule: Q01DX005 (ip), vehicle: water) was 153 % of control and the T/C (dose: 2.0 mg/kg/injection, schedule: Q01DX005 (oral), vehicle: water) was 114 % of control. For the same molecule, the T/C (dose: 2.0 mg/kg/injection, schedule: Q03HX024 (ip), vehicle: saline) was 156 % of control, the T/C (dose: 2.0 mg/kg/injection, schedule: Q04DX003 (iv), vehicle: saline) was 102 % of control and the T/C (dose: 2.4 mg/kg/injection, schedule: Q01DX001 (ip), vehicle: water) was 163 % of control. The T/C (dose: 2.5 mg/kg/injection, schedule: Q03HX008 (ip), vehicle: saline) was 170 % of control, the T/C (dose: 3.0 mg/kg/injection, schedule: Q01DX001 (ip), vehicle: saline) was 150 % of control and 153 % of control and the T/C (dose: 3.0 mg/kg/injection, schedule: Q01DX009 (ip), vehicle: saline) was 104 % of control. For the same molecule, the T/C (dose: 3.2 mg/kg/injection, schedule: Q01DX001 (ip), vehicle: water) was 171 % of control, the T/C (dose: 4.0 mg/kg/injection, schedule: Q01DX001 (ip), vehicle: saline) was 160 % of control and the T/C (dose: 4.0 mg/kg/injection, schedule: Q01DX004 (ip), vehicle: saline) was 99 % of control. For the same molecule, the T/C (dose: 4.0 mg/kg/injection, schedule: Q01DX005 (ip), vehicle: water) was 164 % of control, the T/C (dose: 4.0 mg/kg/injection, schedule: Q01DX005 (oral), vehicle: water) was 104 % of control and the T/C (dose: 4.0 mg/kg/injection, schedule: Q04DX003 (iv), vehicle: saline) was 104 % of control and 113 % of control and 121 % of control. The T/C (dose: 4.2 mg/kg/injection, schedule: Q01DX001 (ip), vehicle: water) was 174 % of control, the T/C (dose: 4.5 mg/kg/injection, schedule: Q01DX001 (ip), vehicle: saline) was 166 % of control and the T/C (dose: 4.5 mg/kg/injection, schedule: Q04DX003 (ip), vehicle: saline) was 159 % of control. The T/C (dose: 5.0 mg/kg/injection, schedule: Q01DX001 (ip), vehicle: saline) was 159 % of control and 174 % of control, the T/C (dose: 5.0 mg/kg/injection, schedule: Q01DX009 (ip), vehicle: water) was 100 % of control and the T/C (dose: 5.0 mg/kg/injection, schedule: Q04DX003 (ip), vehicle: saline) was 118 % of control. For the same molecule, the T/C (dose: 5.0 mg/kg/injection, schedule: Q04DX003 (ip), vehicle: water) was 118 % of control, the T/C (dose: 5.6 mg/kg/injection, schedule: Q01DX001 (ip), vehicle: water) was 106 % of control and the T/C (dose: 6.0 mg/kg/injection, schedule: Q04DX003 (ip), vehicle: saline) was 122 % of control. The T/C (dose: 7.5 mg/kg/injection, schedule: Q01DX001 (ip), vehicle: water) was 116 % of control, the T/C (dose: 8.0 mg/kg/injection, schedule: Q01DX001 (ip), vehicle: saline) was 124 % of control and the T/C (dose: 8.0 mg/kg/injection, schedule: Q01DX005 (oral), vehicle: water) was 102 % of control. For the same molecule, the T/C (dose: 8.0 mg/kg/injection, schedule: Q04DX003 (iv), vehicle: saline) was 150 % of control, the T/C (dose: 10.0 mg/kg/injection, schedule: Q01DX009 (ip), vehicle: water) was 100 % of control and the T/C (dose: 12.0 mg/kg/injection, schedule: Q04DX003 (ip), vehicle: saline) was 150 % of control. For the same molecule, the T/C (dose: 12.5 mg/kg/injection, schedule: Q04DX003 (ip), vehicle: saline) was 115 % of control, the T/C (dose: 16.0 mg/kg/injection, schedule: Q01DX005 (oral), vehicle: water) was 103 % of control and the T/C (dose: 16.0 mg/kg/injection, schedule: Q04DX003 (iv), vehicle: saline) was 104 % of control. For the same molecule, the T/C (dose: 20.0 mg/kg/injection, schedule: Q01DX009 (ip), vehicle: water) was 110 % of control, the T/C (dose: 0.3 micrograms/kg/injection, schedule: Q03HX008 (ip), vehicle: saline) was 123 % of control and the T/C (dose: 0.6 micrograms/kg/injection, schedule: Q03HX040 (ip), vehicle: saline) was 109 % of control. The T/C (dose: 7.5 micrograms/kg/injection, schedule: Q03HX024 (ip), vehicle: saline) was 155 % of control and the T/C (dose: 16.3 micrograms/kg/injection, schedule: Q03HX024 (ip), vehicle: saline) was 165 % of control.
